Experimental data as given in US20250281465A1, “MOLECULES THAT ENHANCE EXTRACELLULAR VESICLE RELEASE” (priority 2022, published 2025).
Entries after “also recorded” stand apart in the source; their conditions may differ.

How the values were obtained:
[1] = test system: mBMDC; assay: Ca2+ add-back assay in mBMDC; format: cell-based, mouse; conditions: for intracellular Ca^2+ after adding Ca^2+ in the medium: Ca^2+ 1.8 mM added at 15 minutes; for intracellular Ca^2+ level without extracellular Ca^2+: Fura-8-loaded mBMDC, 2 μM, 10 μM, 15 minutes, absence of extracellular Ca^2+
Procedure: (§1) FIGS. 1A-1D. Intracellular Ca^2+ influx screening of 84 HTS hit candidate compounds. (A) THP-1 cells were loaded with the ratiometric Ca^2+ indicator, Fura-2, and treated with lonomycin (ION, 1 μM), Thapsigargin (1 μM), or 84 hit candidate compounds (10 μM) for 25 minutes. Data are presented as the area under the curve (AUG) of OD340/380 ratios corresponding to the intracellular Ca^2+ kinetics. The baseline-subtracted AUG was calculated using GraphPad Prism (GraphPad Software, San Diego, CA). (B) Ca^2+ mobilization by compound #634. mBMDCs were loaded with the ratiometric Ca^2+ indicator, Fura-8, and treated with ION (1 μM), or #634 (2 and 10 μM) for 25 minutes. The dashed line indicates the timing of compounds added. The data shown are representative of three independent experiments showing similar results. (C) Ca^2+ add-back assay. Fura-8-loaded mBMDC were treated with ION (1 μM), or compound #634 (2 μM, 10 μM) for 15 minutes in the absence of extracellular Ca^2+, and then Ca^2+ (final 1.8 mM) was added at 15 minutes. Data shown are representative of three independent experiments showing similar results. (D) C57BL/6 mice (n=5/group) were intramuscularly immunized with ovalbumin (OVA, 20 μg/mouse) adjuvanted with compound #634 (200 nmol/mouse), or Veh (10% DMSO) on days 0 and 21 and bled on day 28. OVA-specific IgGI and IgG2c levels in sera were determined by ELISA. **p<0.01, ***p<0.001, ns (not significant) by KruskalWallis tests with Dunn's post hoc test vs. Veh.
FIGS. 18A-18C. Compound 634 induces intracellular Ca^2+ levels in mBMDCs. (A) Intracellular Ca^2+ influx levels of the top eight compounds. THP-1 cells were loaded with the ratiometric Ca^2+ indicator, Fura-2, and treated with ION (1 μM), TG (1 μM), or test compounds (5 μM). The time-response pattern of intracellular Ca^2+ levels was recorded for 25 minutes. AUC of OD340/380 ratios corresponds to the intracellular Ca^2+ kinetics, and the baseline-subtracted AUC was calculated by GraphPad Prism. […] (B) Ca^2+ mobilization by compounds 456 and 634 in mBMDCs. mBMDCs were loaded with Fura-8 and treated with ION (1 μM), or 634 and 456 (10 μM) for 25 minutes. The dashed line indicates the timing of compounds added. The data shown are representative of three independent experiments showing similar results. (C) Ca^2+ add-back assay. Fura-8-loaded mBMDC were treated with ION (1 μM) or compound 634 (2 μM, 10 μM) for 15 minutes in the absence of extracellular Ca^2+, and then Ca^2+ (final 1.8 mM) was added at 15 minutes. The data shown are representative of three independent experiments showing similar results.

[2] = test system: mBMDCs; assay: EV release from mBMDCs (differential ultracentrifugation, MRPS); conditions: for number of EV particles released in the culture supernatant: 46-48 h, vs Veh
[3] = test system: mBMDCs; assay: Intracellular Ca2+ influx (Fura-2/Fura-8) in mBMDCs; format: cell-based, mouse; conditions: for intracellular Ca^2+ influx in mBMDCs (Fura-8): 2 and 10 μM, 25 minutes
[4] = test system: THP-1 cells; assay: Intracellular Ca2+ influx screening (Fura-2) in THP-1 cells; format: cell-based, human
Procedure: as §1
FIGS. 18A-18C. Compound 634 induces intracellular Ca^2+ levels in mBMDCs. […] The time-response pattern of intracellular Ca^2+ levels was recorded for 25 minutes. AUC of OD340/380 ratios corresponds to the intracellular Ca^2+ kinetics, and the baseline-subtracted AUC was calculated by GraphPad Prism. […]
FIGS. 24A-24B. […] The time-response pattern of intracellular Ca^2+ levels was recorded with a plate reader for 25 minutes. (A) The AUC of OD340/380 ratios corresponds to the intracellular Ca^2+ kinetics and the baseline-subtracted AUC was calculated by GraphPad Prism (FIG. 36). […]

`CCOC(=O)c1c(NS(=O)(=O)c2cccc3c2N=S=N3)sc(C)c1C` [#634, ethyl 2-(benzo[c][1,2,5]thiadiazole-4-sulfonamido)-4,5-dimethylthiophene-3-carboxylate] was tested, and the “intracellular Ca^2+ after adding Ca^2+ in the medium” value [1] was “intracellular Ca^2+ influx was restored”, the “intracellular Ca^2+ level without extracellular Ca^2+” value [1] was “did not increase intracellular Ca^2+ levels without extracellular Ca^2+” and the “release of particles of diameter less than 150 nm” value ([2]; 10 μM) was “significantly enhanced”. For the same molecule, the “number of EV particles released in the culture supernatant” value ([2]; 10 μM) was “increased the number of EV particles released”, the “intracellular Ca^2+ influx in mBMDCs (Fura-8)” value [3] was “rapidly increased intracellular Ca^2+” and the “time intracellular Ca^2+ increase was sustained” value ([3]; Fura-8 assay) was “at least 25 min”. For the same molecule, the “intracellular Ca^2+ increase (Fura-2 assay)” value ([4]; hit candidate compounds 10 μM, 25 minutes, vs vehicle control (DMSO)) was “higher intracellular Ca^2+ increase than vehicle control”.

With `CCOC(=O)c1c(NS(=O)(=O)c2cccc3nsnc23)sc(C)c1C` [compound 634, Ethyl 2-(benzo[c][1,2,5]thiadiazole-4-sulfonamido)-4,5-dimethylthiophene-3-carboxylate] the “intracellular Ca^2+ after adding Ca^2+ in the medium” value [1] was “intracellular Ca^2+ levels were restored”, the “intracellular Ca^2+ level without extracellular Ca^2+” value [1] was “did not change the intracellular Ca^2+ concentration” and the “number of EV particles released in the culture supernatant” value ([2]; 10 μM) was “significantly increased the number of EVs released”. For the same molecule, the “increase of the number of EVs released compared to Veh control” value ([2]; 634 10 μM, 48 hours, p<0.05) was 45%, the “intracellular Ca^2+ influx by 634 and its SAR analogs (Fura-2)” value ([3]; 10 μM, vs Veh 0.5% DMSO / #634) was “Ca^2+ influx positive” and the “intracellular Ca^2+ influx in mBMDCs (Fura-8)” value [3] was “induced Ca^2+ influx in mBMDCs; also recorded: comparable to ionomycin”. The “intracellular Ca^2+ (relative AUC of OD340/380)” value ([4]; validation assay, 5 μM, vs Veh 0.5% DMSO) was “significantly increased intracellular Ca^2+”.
